The NIST ThermoML archive (doi:10.1016/j.jct.2019.02.011)

Assay: xn = mol fraction of the nth substance listed
Conditions: Liquid, Vibrating tube method

COC(=O)OC [dimethyl carbonate] + CCCO
mass density [kg/m3]
Conditions | 100 kPa | 5000 kPa | 10000 kPa | 15000 kPa | 20000 kPa | 25000 kPa | 30000 kPa | 35000 kPa | 40000 kPa
288.15 K, x1 = 0.0273 | 815.28 | 819.04 | 822.48 | 825.78 | 829.15 | 832.17 | 835.17 | 838.02 | 840.76
288.15 K, x1 = 0.0506 | 821.93 | 825.69 | 829.18 | 832.53 | 835.9 | 838.98 | 842.03 | 844.93 | 847.68
288.15 K, x1 = 0.0755 | 829.07 | 832.88 | 836.37 | 839.78 | 843.2 | 846.28 | 849.38 | 852.29 | 855.09
288.15 K, x1 = 0.1007 | 836.26 | 840.08 | 843.62 | 847.03 | 850.45 | 853.58 | 856.69 | 859.6 | 862.4
288.15 K, x1 = 0.1495 | 850.12 | 853.99 | 857.54 | 861.01 | 864.47 | 867.61 | 870.78 | 873.75 | 876.61
288.15 K, x1 = 0.2003 | 864.44 | 868.36 | 871.96 | 875.5 | 879 | 882.15 | 885.32 | 888.35 | 891.27
288.15 K, x1 = 0.2529 | 879.11 | 883.04 | 886.7 | 890.29 | 893.84 | 897.05 | 900.28 | 903.32 | 906.24
288.15 K, x1 = 0.2993 | 891.99 | 895.97 | 899.68 | 903.29 | 906.83 | 910.1 | 913.34 | 916.38 | 919.36
288.15 K, x1 = 0.3497 | 905.81 | 909.85 | 913.56 | 917.23 | 920.81 | 924.09 | 927.39 | 930.49 | 933.52
288.15 K, x1 = 0.401 | 919.74 | 923.79 | 927.61 | 931.33 | 934.96 | 938.25 | 941.6 | 944.76 | 947.8
288.15 K, x1 = 0.4509 | 933.25 | 937.3 | 941.17 | 944.96 | 948.59 | 951.93 | 955.29 | 958.51 | 961.56
288.15 K, x1 = 0.5002 | 946.47 | 950.58 | 954.46 | 958.3 | 961.98 | 965.33 | 968.75 | 971.97 | 975.08
288.15 K, x1 = 0.5498 | 959.76 | 963.88 | 967.81 | 971.66 | 975.38 | 978.79 | 982.22 | 985.5 | 988.61
288.15 K, x1 = 0.5996 | 973.01 | 977.19 | 981.12 | 984.99 | 988.75 | 992.17 | 995.65 | 998.94 | 1002.11
288.15 K, x1 = 0.6499 | 986.28 | 990.51 | 994.5 | 998.42 | 1002.18 | 1005.66 | 1009.15 | 1012.45 | 1015.62
288.15 K, x1 = 0.7006 | 999.56 | 1003.79 | 1007.79 | 1011.77 | 1015.53 | 1019.07 | 1022.61 | 1025.92 | 1029.15
288.15 K, x1 = 0.7471 | 1011.61 | 1015.85 | 1019.9 | 1023.94 | 1027.7 | 1031.24 | 1034.8 | 1038.16 | 1041.39
288.15 K, x1 = 0.7989 | 1025.02 | 1029.31 | 1033.41 | 1037.52 | 1041.32 | 1044.87 | 1048.43 | 1051.8 | 1055.05
288.15 K, x1 = 0.8491 | 1038.04 | 1042.34 | 1046.44 | 1050.56 | 1054.41 | 1057.97 | 1061.59 | 1065.02 | 1068.31
288.15 K, x1 = 0.8993 | 1051.07 | 1055.38 | 1059.54 | 1063.72 | 1067.56 | 1071.18 | 1074.81 | 1078.24 | 1081.55
288.15 K, x1 = 0.9249 | 1057.64 | 1061.95 | 1066.12 | 1070.3 | 1074.14 | 1077.81 | 1081.44 | 1084.88 | 1088.19
288.15 K, x1 = 0.9489 | 1063.77 | 1068.08 | 1072.25 | 1076.44 | 1080.27 | 1083.9 | 1087.54 | 1091.03 | 1094.34
288.15 K, x1 = 0.9743 | 1070.25 | 1074.61 | 1078.78 | 1082.98 | 1086.81 | 1090.45 | 1094.08 | 1097.53 | 1100.84
288.15 K, x1 = 1 | 1076.83 | 1081.15 | 1085.32 | 1089.52 | 1093.35 | 1096.99 | 1100.63 | 1104.08 | 1107.4
293.15 K, x1 = 0.0273 | 811.13 | 814.85 | 818.47 | – | – | – | – | – | –
293.15 K, x1 = 0.0506 | 817.67 | 821.44 | 825.06 | – | – | – | – | – | –
293.15 K, x1 = 0.0755 | 824.75 | 828.52 | 832.19 | – | – | – | – | – | –
293.15 K, x1 = 0.1007 | 831.84 | 835.66 | 839.38 | – | – | – | – | – | –
293.15 K, x1 = 0.1495 | 845.58 | 849.45 | 853.18 | – | – | – | – | – | –
293.15 K, x1 = 0.2003 | 859.73 | 863.66 | 867.43 | – | – | – | – | – | –
293.15 K, x1 = 0.2529 | 874.29 | 878.27 | – | – | – | – | – | – | –
293.15 K, x1 = 0.2993 | 887.05 | 891.08 | – | – | – | – | – | – | –
293.15 K, x1 = 0.3497 | 900.71 | 904.78 | – | – | – | – | – | – | –
293.15 K, x1 = 0.401 | 914.47 | 918.61 | – | – | – | – | – | – | –
293.15 K, x1 = 0.4509 | 927.86 | 932.05 | – | – | – | – | – | – | –
293.15 K, x1 = 0.5002 | 940.97 | 945.21 | – | – | – | – | – | – | –
293.15 K, x1 = 0.5498 | 954.1 | 958.38 | – | – | – | – | – | – | –
293.15 K, x1 = 0.5996 | 967.18 | 971.52 | – | – | – | – | – | – | –
293.15 K, x1 = 0.6499 | 980.33 | 984.67 | – | – | – | – | – | – | –
293.15 K, x1 = 0.7006 | 993.49 | 997.89 | – | – | – | – | – | – | –
293.15 K, x1 = 0.7471 | 1005.43 | 1009.83 | – | – | – | – | – | – | –
293.15 K, x1 = 0.7989 | 1018.72 | 1023.17 | – | – | – | – | – | – | –
293.15 K, x1 = 0.8491 | 1031.57 | 1036.07 | – | – | – | – | – | – | –
293.15 K, x1 = 0.8993 | 1044.49 | 1049.04 | – | – | – | – | – | – | –
293.15 K, x1 = 0.9249 | 1051 | 1055.55 | – | – | – | – | – | – | –
293.15 K, x1 = 0.9489 | 1057.07 | 1061.62 | – | – | – | – | – | – | –
293.15 K, x1 = 0.9743 | 1063.49 | 1068.04 | – | – | – | – | – | – | –
293.15 K, x1 = 1 | 1070.06 | 1074.62 | – | – | – | – | – | – | –
